Test results published in US20200239530A1, “COMPOUNDS AND METHODS OF MODULATING PROTEIN DEGRADATION” (Vividion Therapeutics, Inc., priority 2017, published 2020).

Molecular target: T1, TAP2 Antigen peptide transporter 2 (Homo sapiens, UniProt Q03519)
T1 construct: Cells were resuspended in cold PBS on ice and sonicated with a probe sonicator to achieve lysis; endogenous in cells
T1 sequence (Q03519 1-686): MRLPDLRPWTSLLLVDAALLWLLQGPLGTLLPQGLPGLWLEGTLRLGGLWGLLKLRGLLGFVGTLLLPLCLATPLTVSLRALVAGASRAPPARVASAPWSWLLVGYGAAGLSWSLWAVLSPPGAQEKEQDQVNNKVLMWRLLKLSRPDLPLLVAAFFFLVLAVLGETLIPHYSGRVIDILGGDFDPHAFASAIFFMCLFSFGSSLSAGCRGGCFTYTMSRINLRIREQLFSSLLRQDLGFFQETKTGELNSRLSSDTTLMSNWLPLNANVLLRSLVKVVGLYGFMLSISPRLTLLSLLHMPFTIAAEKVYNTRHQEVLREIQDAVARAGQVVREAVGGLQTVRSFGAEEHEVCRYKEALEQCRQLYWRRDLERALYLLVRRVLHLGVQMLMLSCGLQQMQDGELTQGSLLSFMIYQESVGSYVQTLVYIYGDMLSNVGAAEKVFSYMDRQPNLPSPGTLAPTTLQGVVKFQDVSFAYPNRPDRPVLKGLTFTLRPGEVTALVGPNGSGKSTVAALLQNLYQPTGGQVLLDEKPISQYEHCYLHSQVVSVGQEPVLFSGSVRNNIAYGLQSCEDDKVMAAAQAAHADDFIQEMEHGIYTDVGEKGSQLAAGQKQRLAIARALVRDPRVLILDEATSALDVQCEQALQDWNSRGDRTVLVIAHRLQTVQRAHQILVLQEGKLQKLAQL
T1 sequence (Q03518 1-748 partner): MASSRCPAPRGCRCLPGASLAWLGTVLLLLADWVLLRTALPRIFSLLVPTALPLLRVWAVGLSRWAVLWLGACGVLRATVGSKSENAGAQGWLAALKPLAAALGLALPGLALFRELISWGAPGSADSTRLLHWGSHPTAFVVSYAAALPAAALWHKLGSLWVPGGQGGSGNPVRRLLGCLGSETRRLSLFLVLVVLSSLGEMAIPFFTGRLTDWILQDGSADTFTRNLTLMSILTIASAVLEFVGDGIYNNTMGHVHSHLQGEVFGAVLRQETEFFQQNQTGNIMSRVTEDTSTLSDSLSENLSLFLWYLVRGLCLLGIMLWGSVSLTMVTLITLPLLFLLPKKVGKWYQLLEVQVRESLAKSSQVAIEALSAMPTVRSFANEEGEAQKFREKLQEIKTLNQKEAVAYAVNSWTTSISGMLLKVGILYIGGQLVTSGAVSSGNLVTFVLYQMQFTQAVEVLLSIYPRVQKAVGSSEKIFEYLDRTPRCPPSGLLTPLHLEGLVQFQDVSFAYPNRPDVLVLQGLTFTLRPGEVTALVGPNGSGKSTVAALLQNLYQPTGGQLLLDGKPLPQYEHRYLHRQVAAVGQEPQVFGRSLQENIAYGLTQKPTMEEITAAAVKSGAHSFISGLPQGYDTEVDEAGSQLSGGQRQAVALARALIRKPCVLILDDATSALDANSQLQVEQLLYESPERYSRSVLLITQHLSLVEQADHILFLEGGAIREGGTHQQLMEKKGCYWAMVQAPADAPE
Assay: Cysteine liganding, probe competition
Type: binding
Details: for Liganded: TAP2 Res# 641, uniprot Q03519
How it was run: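 Probe competition in native proteome: 5 mg/ml lysate, compound 1 hr 25° C, then desthiobiotin iodoacetamide (10 mM stock) 1 hr 25° C; acetone ppt, urea/DTT reduction, iodoacetamide alkylation, trypsin, streptavidin pull-down.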

Structure (SMILES)	Liganded	100 ave (uniprot Q03519)	500 Max (uniprot Q03519)	500 ave (uniprot Q03519)	100 Max (uniprot Q03519, in % (unit assumed))
COc1ccc2c(c1)CCCN2C(=O)CCl [KB02]	YES	–	–	–	–
O=C(CCl)Nc1cc(C(F)(F)F)cc(C(F)(F)F)c1 [KBO3]	YES	70.57	94.0932	94.0932	71.9622
